According to US20220009967A1, “Isolation and Semi-Synthesis of Rufomycin Analogs” (THE BOARD OF TRUSTEES OF THE UNIVERSITY OF ILLINOIS, priority 2020, published 2022):
Converted amounts (≈) assume the structure as drawn. Like-named read-outs stand apart in the source and are kept apart here.

Experiments:
M. tuberculosis = experiment: MIC against M. tuberculosis, microplate Alamar Blue assay (MABA); format: cell-based, Mycobacterium tuberculosis; set-up: MIC90: unit not given beside the values; conditions: for MIC90: MABA, Table 3, unit not given
Method: MICs against M. tuberculosis. The MIC was defined as the minimum concentration of the compound required to achieve a reduction in fluorescence by 90% relative to the untreated bacterial controls. The anti-TB activity was determined by the microplate Alamar Blue assay (MABA) as previously described (Choules et al., Antimicrob. Agents Chemother. 2019, 63, e02204-02218).

Mycobacterial ClpC1-NTD = target: T1, Mycobacterial ClpC1-NTD (Mycobacterium tuberculosis, UniProt P9WPC9); experiment: SPR binding affinity to ClpC1-NTD
T1 construct: caseinolytic protein C1 (ClpC1) N-terminal domain (NTD)
Method: (§1) Analysis of binding affinity to Mycobacterial ClpC1-NTD and FL by SPR. SPR binding assay was performed using a previously reported method (Choules et al., Antimicrob. Agents Chemother. 2019, 63, e02204-02218; Wolf et al., ACS Infect. Dis. 2019, 5, 829-840). Kinetic rate constants (ka and kd) were determined by fitting the double-reference data globally to the 1:1 Langmuir model embedded in the Biacore T200 evaluation software (v3.0). KD values were then calculated from the two rate constants (KD=kd/ka). Smaller KD values represent tighter binding affinities.

Mycobacterial ClpC1 FL = target: T2, Mycobacterial ClpC1 FL (Mycobacterium tuberculosis, UniProt P9WPC9); experiment: SPR binding affinity to ClpC1 full-length protein (FL)
T2 construct: N-terminal domain (NTD) and the full-length protein (FL) by surface plasmon resonance (SPR)
Method: as §1

[1] = Interconversion (epimerization) of rufomycin diastereomers, HPLC analysis; format: physicochemical; conditions: for interconversion / stability of diastereomers (in words): HPLC analysis, hemi-aminal epimers
From the text: The rufomycins 32-35 were identified as four diastereomers, arising from different orientations of the hydroxyl and methyl groups in the hydroxy-methyl piperidinone moiety. Rufomycin 32 was assigned the (AA5, 4S,5R) absolute configuration based on the ROESY correlations, and further confirmed by the cocrystal structures of rufomycin 32 and ClpC1-NTD. Thus, rufomycin 32 is that congener previously identified as ilamycin, Compound 4, and ilamycin C1 (PCT/US2000/015044). […] The assigned 4S,5S (AA5) absolute configuration for rufomycin 33 was validated by the ROESY correlations. Rufomycin 34 with the absolute configuration 4R,5R (AA5) was established by the ROESY cross-peaks. […] After being purified by semi-prep HPLC, rufomycin 35 was concentrated under a stream of forced air and freeze drying to reduce interconversion.

[2] = ClpC1 N-terminal domain, KD=kd/ka, Table 1, read-out: SPR KD NTD
[3] = ClpC1 full-length protein, KD=kd/ka, Table 1, read-out: SPR KD FL
[4] = SPR, ClpC1 N-terminal domain, Table 3, unit inferred, read-out: KD NTD
[5] = SPR, ClpC1 full-length protein, Table 3, unit inferred, read-out: KD FL

T2 sequence (P9WPC9 whole entry, the tested form may be a part): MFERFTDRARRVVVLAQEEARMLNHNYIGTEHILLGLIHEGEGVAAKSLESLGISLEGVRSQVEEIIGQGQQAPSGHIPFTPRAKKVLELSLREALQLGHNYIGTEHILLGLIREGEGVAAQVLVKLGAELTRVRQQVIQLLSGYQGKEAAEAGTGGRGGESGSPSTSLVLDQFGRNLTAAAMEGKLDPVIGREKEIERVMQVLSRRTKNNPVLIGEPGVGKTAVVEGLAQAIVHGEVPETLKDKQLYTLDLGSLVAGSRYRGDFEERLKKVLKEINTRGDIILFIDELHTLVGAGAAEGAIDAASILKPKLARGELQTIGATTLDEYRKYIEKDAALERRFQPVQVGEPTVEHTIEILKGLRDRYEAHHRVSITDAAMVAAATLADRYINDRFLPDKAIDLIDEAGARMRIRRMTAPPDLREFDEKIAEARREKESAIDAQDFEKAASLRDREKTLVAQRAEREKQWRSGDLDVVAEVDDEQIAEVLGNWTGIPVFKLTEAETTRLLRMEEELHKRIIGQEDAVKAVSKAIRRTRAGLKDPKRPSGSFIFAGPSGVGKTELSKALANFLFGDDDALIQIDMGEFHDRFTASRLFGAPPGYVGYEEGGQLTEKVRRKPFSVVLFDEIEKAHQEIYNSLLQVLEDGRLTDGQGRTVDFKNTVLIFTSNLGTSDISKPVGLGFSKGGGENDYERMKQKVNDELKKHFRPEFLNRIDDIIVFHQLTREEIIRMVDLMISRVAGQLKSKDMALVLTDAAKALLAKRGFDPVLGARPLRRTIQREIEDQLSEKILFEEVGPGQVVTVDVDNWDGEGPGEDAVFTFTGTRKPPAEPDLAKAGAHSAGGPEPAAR

Row | SMILES | MIC (M. tuberculosis; Mycobacterium tuberculosis) | Kd (Mycobacterial ClpC1-NTD; [2]) | Kd (Mycobacterial ClpC1 FL; [3]) | also measured
1 | C/C=C/C[C@@H]1NC(=O)[C@H](CC(C)C)N2C(=O)[C@H](CC(C)[C@H]2O)N(C)C(=O)[C@H](C)NC(=O)[C@H](Cc2ccc(OC)c([N+](=O)[O-])c2)NC(=O)[C@H](CC(C)C)N(C)C(=O)[C@H](Cc2cn(C(C)(C)[C@H]3CO3)c3ccccc23)NC1=O (stereo partly shown) [Compound 29] | 0.0543 µM (≈ 0.0574 µg/mL) | 117 nM | 133 nM | 
2 | C/C=C/C[C@@H]1NC(=O)[C@H](CC(C)C)N2C=C(C)C[C@@H](C2=O)N(C)C(=O)[C@H](C)NC(=O)[C@H](Cc2ccc(OC(=O)c3ccccc3)c([N+](=O)[O-])c2)NC(=O)[C@H](CC(C)C)N(C)C(=O)[C@H](Cc2cn(C(C)(C)[C@H](O)CCl)c3ccccc23)NC1=O [Compound 17] | 0.0529 µM (≈ 0.0616 µg/mL) |  |  | Kd (Mycobacterial ClpC1-NTD): 1250 nM; Kd (Mycobacterial ClpC1 FL): 2030 nM
3 | C/C=C/C[C@@H]1NC(=O)[C@H](CC(C)C)N2C(=O)[C@H](C[C@H](C)[C@H]2O)N(C)C(=O)[C@H](C)NC(=O)[C@H](Cc2ccc(O)c([N+](=O)[O-])c2)NC(=O)[C@H](CC(C)C)N(C)C(=O)[C@H](Cc2cn(C(C)(C)[C@H]3CO3)c3ccccc23)NC1=O [rufomycin 32] |  |  |  | MIC90 (M. tuberculosis): 21; anti-M.tb potency relative to rifampin and isoniazid (in words) (M. tuberculosis; MIC data of Table 3): higher potency than drugs rifampin and isoniazid; Kd (Mycobacterial ClpC1-NTD; [4]): 32 nM; Kd (Mycobacterial ClpC1 FL; [5]): 31 nM; interconversion / stability of diastereomers (in words) [1]: interconvertible
4 | C/C=C/C[C@@H]1NC(=O)[C@H](CC(C)C)N2C(=O)[C@H](CC(C)[C@H]2OCC)N(C)C(=O)[C@H](C)NC(=O)[C@H](Cc2ccc(O)c([N+](=O)[O-])c2)NC(=O)[C@H](CC(C)C)N(C)C(=O)[C@H](Cc2cn(C(C)(C)[C@H](O)CCl)c3ccccc23)NC1=O (stereo partly shown) [Compound 8] | 0.244 ± 0.0271 µM (≈ 0.27 µg/mL) | 120 nM | 142 nM | 
5 | NNC(=O)c1ccncc1 [INH, isoniazid, reference compound] |  |  |  | MIC90 (M. tuberculosis): 463
6 | C/C=C/C[C@@H]1NC(=O)[C@H](CC(C)C)N2C=C(C)C[C@@H](C2=O)N(C)C(=O)[C@H](C)NC(=O)[C@H](Cc2ccc(O)c([N+](=O)[O-])c2)NC(=O)[C@H](CC(C)C)N(C)C(=O)[C@H](Cc2cn(C(C)(C)[C@H](O)CCl)c3ccccc23)NC1=O [Compound 3] | 0.0188 ± 0.004 µM (≈ 0.0199 µg/mL) | 82.3 nM | 97.1 nM | 
7 | C/C=C/C[C@@H]1NC(=O)[C@H](CC(C)C)N2C=C(C)C[C@@H](C2=O)N(C)C(=O)[C@H](C)NC(=O)[C@H](Cc2ccc3c(c2)N=C(C)CC(C)(C)O3)NC(=O)[C@H](CC(C)C)N(C)C(=O)[C@H](Cc2cn(C(C)(C)[C@H](O)CCl)c3ccccc23)NC1=O [Compound 20] | 0.782 µM (≈ 0.869 µg/mL) | 196 nM | 234 nM | 
8 | C/C=C/C[C@@H]1NC(=O)[C@H](CC(C)C)N2C=C(C)C[C@@H](C2=O)N(C)C(=O)[C@H](C)NC(=O)[C@H](Cc2ccc(OC(C)=O)c([N+](=O)[O-])c2)NC(=O)[C@H](CC(C)C)N(C)C(=O)[C@H](Cc2cn(C(C)(C)[C@H](O)CCl)c3ccccc23)NC1=O [Compound 15] | 0.0224 µM (≈ 0.0247 µg/mL) | 317 nM | 513 nM | 
9 | C/C=C/C[C@@H]1NC(=O)[C@H](CC(C)C)N2C(=O)[C@H](CC(C)[C@H]2OC)N(C)C(=O)[C@H](C)NC(=O)[C@H](Cc2ccc(OC)c([N+](=O)[O-])c2)NC(=O)[C@H](CC(C)C)N(C)C(=O)[C@H](Cc2cn(C(C)(C)[C@H]3CO3)c3ccccc23)N(C)C1=O (stereo partly shown) [Compound 24] | 0.0646 µM (≈ 0.07 µg/mL) | 451 nM | 513 nM | 
10 | C/C=C/C[C@@H]1NC(=O)[C@H](CC(C)C)N2C(=O)[C@H](CC(C)[C@H]2O)N(C)C(=O)[C@H](C)NC(=O)[C@H](Cc2ccc(O)c([N+](=O)[O-])c2)NC(=O)[C@H](CC(C)C)N(C)C(=O)[C@H](Cc2cn(C(C)(C)[C@H](O)CCl)c3ccccc23)NC1=O (stereo partly shown) [Compound 7] | 0.0464 ± 0.0046 µM (≈ 0.0501 µg/mL) | 114 nM | 116 nM | 
11 | C/C=C/C[C@@H]1NC(=O)[C@H](CC(C)C)N2C(=O)[C@H](C[C@@H](C)[C@H]2O)N(C)C(=O)[C@H](C)NC(=O)[C@H](Cc2ccc(O)c([N+](=O)[O-])c2)NC(=O)[C@H](CC(C)C)N(C)C(=O)[C@H](Cc2cn(C(C)(C)[C@H]3CO3)c3ccccc23)NC1=O [rufomycin 34] |  |  |  | MIC90 (M. tuberculosis): 46; Kd (Mycobacterial ClpC1-NTD; [4]): 183 nM; Kd (Mycobacterial ClpC1 FL; [5]): 178 nM; conversion to rufomycin 35 ([1]; under aqueous conditions, slowly): ~5%
12 | C/C=C/C[C@@H]1NC(=O)[C@H](CC(C)C)N2C(=O)[C@H](CC(C)[C@H]2OC(C)=O)N(C)C(=O)[C@H](C)NC(=O)[C@H](Cc2ccc(OC(C)=O)c([N+](=O)[O-])c2)NC(=O)[C@H](CC(C)C)N(C)C(=O)[C@H](Cc2cn(C(C)(C)[C@H]3CO3)c3ccccc23)NC1=O (stereo partly shown) [Compound 26] | 0.0089 ± 0.0036 µM (≈ 0.01 µg/mL) | 33.8 nM | 16 nM | 
13 | CO[C@H]1/C=C/O[C@@]2(C)Oc3c(C)c(O)c4c(O)c(c(/C=N/N5CCN(C)CC5)c(O)c4c3C2=O)NC(=O)/C(C)=C\C=C\[C@H](C)[C@H](O)[C@@H](C)[C@@H](O)[C@@H](C)[C@H](OC(C)=O)[C@@H]1C [RMP, rifampin, reference compound] |  |  |  | MIC90 (M. tuberculosis): 28
14 | C/C=C/C[C@@H]1NC(=O)[C@H](CC(C)C)N2C(=O)[C@H](CC(C)[C@H]2OC)N(C)C(=O)[C@H](C)NC(=O)[C@H](Cc2ccc(O)c([N+](=O)[O-])c2)NC(=O)[C@H](CC(C)C)N(C)C(=O)[C@H](Cc2cn(C(C)(C)[C@H](O)COC)c3ccccc23)NC1=O (stereo partly shown) [Compound 4] | 0.0064 ± 0.0018 µM (≈ 0.00697 µg/mL) | 88.5 nM | 79.9 nM | 
15 | C/C=C/C[C@@H]1NC(=O)[C@H](CC(C)C)N2C(=O)[C@H](CC(C)[C@H]2O)N(C)C(=O)[C@H](C)NC(=O)[C@H](Cc2ccc(OC(C)=O)c([N+](=O)[O-])c2)NC(=O)[C@H](CC(C)C)N(C)C(=O)[C@H](Cc2cn(C(C)(C)[C@H]3CO3)c3ccccc23)NC1=O (stereo partly shown) [Compound 25] | 0.0184 ± 0.006 µM (≈ 0.02 µg/mL) | 56 nM | 72.5 nM | 
16 | C/C=C/C[C@@H]1NC(=O)[C@H](CC(C)C)N2C(=O)[C@H](CC(C)[C@H]2OC)N(C)C(=O)[C@H](C)NC(=O)[C@H](Cc2ccc(OC)c([N+](=O)[O-])c2)NC(=O)[C@H](CC(C)C)N(C)C(=O)[C@H](Cc2cn(C(C)(C)[C@H]3CO3)c3ccccc23)NC1=O (stereo partly shown) [Compound 30] | 0.0058 µM (≈ 0.00621 µg/mL) | 55.5 nM | 75.1 nM | 
17 | C/C=C/C[C@@H]1NC(=O)[C@H](CC(C)C)N2C(=O)[C@H](CC(C)[C@H]2OC)N(C)C(=O)[C@H](C)NC(=O)[C@H](Cc2ccc(O)c([N+](=O)[O-])c2)NC(=O)[C@H](CC(C)C)N(C)C(=O)[C@H](Cc2cn(C(C)(C)[C@H](O)CCl)c3ccccc23)NC1=O (stereo partly shown) [Compound 5] |  | 123 nM | 163 nM | 
18 | C/C=C/C[C@@H]1NC(=O)[C@H](CC(C)C)N2C(=O)[C@H](CC(C)[C@H]2OCCC)N(C)C(=O)[C@H](C)NC(=O)[C@H](Cc2ccc(O)c([N+](=O)[O-])c2)NC(=O)[C@H](CC(C)C)N(C)C(=O)[C@H](Cc2cn(C(C)(C)[C@H](O)CCl)c3ccccc23)NC1=O (stereo partly shown) [Compound 10] | 0.75 ± 0.0107 µM (≈ 0.84 µg/mL) | 90.7 nM | 143 nM | 
19 | C/C=C/C[C@@H]1NC(=O)[C@H](CC(C)C)N2C=C(C)C[C@@H](C2=O)N(C)C(=O)[C@H](C)NC(=O)[C@H](Cc2ccc(OC)c([N+](=O)[O-])c2)NC(=O)[C@H](CC(C)C)N(C)C(=O)[C@H](Cc2cn(C(C)(C)[C@H]3CO3)c3ccccc23)NC1=O [Compound 16] | 0.0726 µM (≈ 0.0754 µg/mL) | 580 nM | 883 nM | 
20 | C/C=C/C[C@@H]1NC(=O)[C@H](CC(C)C)N2C(=O)[C@H](CC(C)[C@H]2OC)N(C)C(=O)[C@H](C)NC(=O)[C@H](Cc2ccc(O)c([N+](=O)[O-])c2)NC(=O)[C@H](CC(C)C)N(C)C(=O)[C@H](Cc2cn(C(C)(C)[C@H]3CO3)c3ccccc23)NC1=O (stereo partly shown) [Compound 6] |  | 103 nM | 31.7 nM | increase in activity compared to rufomycin analogues 1 and 2 (M. tuberculosis; MIC ratio, in words): ten-fold increase in activity; MIC (M. tuberculosis; text summary of Table 1, unit not given): 1.9
21 | C/C=C/C[C@@H]1NC(=O)[C@H](CC(C)C)N2C(=O)[C@H](C[C@@H](C)[C@@H]2O)N(C)C(=O)[C@H](C)NC(=O)[C@H](Cc2ccc(O)c([N+](=O)[O-])c2)NC(=O)[C@H](CC(C)C)N(C)C(=O)[C@H](Cc2cn(C(C)(C)[C@H]3CO3)c3ccccc23)NC1=O [rufomycin 35] |  |  |  | MIC90 (M. tuberculosis): 47; Kd (Mycobacterial ClpC1-NTD; [4]): 186 nM; Kd (Mycobacterial ClpC1 FL; [5]): 209 nM; interconversion / stability of diastereomers (in words) [1]: the most unstable diastereomer; epimerization to rufomycin 34 ([1]; during concentration, quickly): ~50%
22 | C/C=C/C[C@@H]1NC(=O)[C@H](CC(C)C)N2C=C(C)C[C@@H](C2=O)N(C)C(=O)[C@H](C)NC(=O)[C@H](Cc2ccc(O)c(N)c2)NC(=O)[C@H](CC(C)C)N(C)C(=O)[C@H](Cc2cn(C(C)(C)[C@H](O)CCl)c3ccccc23)NC1=O [Compound 19] | 0.887 µM (≈ 0.914 µg/mL) | 501 nM | 319 nM | 
